Values after ≈ are worked out from the molar mass of the structure shown. Read-outs that look alike come from different tables or passages of the source.
Columns and labels:
[1] = tested on: Plasmodium falciparum 3D7 sensitive strain; test: SYBR Green growth assay, asexual blood stages, 3D7 sensitive strain; type: cell-based
Protocol: (§1) Parasite strains SB1-A6, 7G8, V1/S, and HB3 were acquired from BEI-MR4, while the ATQ R1 strain, carrying a V259L gene mutation, was generated in-house. […] Parasitemia was monitored using Giemsa-stained blood smears.
(§2) Bioassays were conducted with synchronized ring-stage parasites using sorbitol synchronization. Antimalarial compounds were evaluated in 96-well plates, and parasite growth was assessed using a SYBR Green-based fluorescence assay The assays were conducted when the parasite quantity reached at least 70% of the ring stage. Compounds were initially added at specific concentrations in the first wells, followed by serial dilution (1:2) ranging from 20 μM to 0.009 μM. Subsequently, a solution containing parasites in RPMI medium at a hematocrit of 2% was added to each well, and the parasites were then incubated for 72 h.
(§3) The IC50 values were determined using concentration–response curves generated in GraphPad 8 software. Additionally, the resistance index was calculated by comparing IC50 values obtained for the sensitive 3D7 strain with those of the resistant strains.

[2] = tested on: late-stage gametocytes (IV and V) of P. falciparum NF54; test: Late-stage gametocyte bioluminescence assay, luciferase-expressing NF54; type: cell-based, Plasmodium falciparum; conditions: for Pf gametocytes inhibition: 1 μM
Protocol: For the in vitro culture of sexual stages of P. falciparum NF54 Luminescent strain, the Tripathi protocol was followed.
Parasite asexual stages were synchronized, and ring-stage parasites were incubated with a parasite-conditioned medium to induce stress and trigger gametocyte induction. After sexually committed parasites invaded new erythrocytes, N-acetylglucosamine was added to prevent further invasion and clear residual asexual parasites.
When a predominance of late stage (IV and V) gametocytes was identified and counted together, , the MACS magnetic system was used for gametocyte enrichment, as previously described. ,
The column content was eluted with RPMI medium into a 15 mL Falcon tube until translucent medium appeared, yielding ∼ 10 mL of eluate. The sample was centrifuged at 1500 rpm for 5 min at 37 °C, the supernatant discarded, and the pellet washed with preheated RPMI medium containing albumax. A 1 μL pellet sample was used to prepare a Giemsa-stained smear for gametocytaemia determination by counting 2000 cells. The gametocytemia for each assay were 71%, 64% and 31%. The remaining pellet was adjusted to 1 mL with RPMI medium containing 10% human serum at 37 °C. Total cell counts were performed using a Neubauer chamber with a 10X diluted sample.
Each well contained 200,000 gametocytes in 150 μL without erythrocytes. After 48 h of incubation, a luciferase kit (Promega) was used to reveal the assay. Eighty microliters of supernatant were discarded, and the pellet was homogenized in the remaining content. Forty microliters of the sample were transferred to a clear 96-well plate containing lysis solution (1X), gently mixed, and moved to a white-bottomed 96-well plate. Luciferase (40 μL) was added, and luminescence was measured using a microplate reader with a 10-s integration time.

[3] = tested on: P. berghei hepatic stages; test: Hepatic stage bioluminescence assay, Huh-7 cells infected with luciferase-expressing sporozoites; type: cell-based, Plasmodium berghei; conditions: read-out: IC50 (μM) Pb liver stages
Protocol: (§4) Huh-7 cells were cultured in RPMI 1640 medium (Sigma) supplemented with 10% v/v fetal bovine serum (FBS), 1% v/v penicillin/streptomycin, 1% v/v glutamine, 1% v/v nonessential amino acids, and 10 mM HEPES, pH 7. For compound dilution, a medium containing 1:1000 gentamicin (G) and 1:300 fungizone (F) was used. Cells were seeded at 1 × 10^4 cells/well in 96-well plates and incubated at 37 °C with 5% CO2. After 24 h, compounds were diluted in RPMI+F+G, and after removal of the culture medium, added to the cells in triplicate. DMSO and atovaquone were used as negative and positive controls, respectively. Following incubation for 1 h at 37 °C, 5% CO2, the cells were infected with luciferase-expressing P. berghei sporozoites (4,000 parasites per well) freshly extracted from the salivary glands of infected mosquitoes reared at the GIMM insectarium. The viability of Huh-7 cells exposed to the compounds was assessed 46 h later by the AlamarBlue assay (Invitrogen, UK) measurement, and parasite burden was measured 48 h after sporozoite addition using a bioluminescence assay (Biotium). IC50 values were calculated using GraphPad Prism through nonlinear regression analysis of normalized dose–response curves.

P. falciparum HB3 strain = test: SYBR Green growth assay, asexual blood stages, HB3 strain; type: cell-based, Plasmodium falciparum; conditions: Plasmodium falciparum
Protocol: as §1, §2, §3

[4] = tested on: P. falciparum V1/S strain; test: microbe, parasite or virus in culture; type: cell-based, Plasmodium falciparum; conditions: Plasmodium falciparum, 72 h
Protocol: (§5) Healthy blood samples for parasite culture were obtained from voluntary donors (approved under protocol #28176720.9.0000.0011), processed to remove white blood cells, and stored at 2 °C–8 °C for up to 15 days. Parasite strains SB1-A6, 7G8, V1/S, and HB3 were acquired from BEI-MR4, while the ATQ R1 strain, carrying a V259L gene mutation, was generated in-house. Infected erythrocytes were cultured in RPMI 1640 medium supplemented with Hepes, sodium bicarbonate, glucose, Albumax, and gentamicin, […], and incubated in a 5% CO2, 5% O2, and 90% N2 gas mixture at 37 °C with daily medium changes. Parasitemia was monitored using Giemsa-stained blood smears.
as §2
(§6) To assess parasite growth, the culture medium was replaced with a lysis solution (Trisbase: 49.31%, EDTA: 30.00%, Saponin: 0.16%, Triton: 0.02%) containing the fluorescent dye SYBR Green (Sigma). After a 30 min incubation, fluorescence readings were taken to determine the 50% inhibitory concentration (IC50) of parasite growth. The IC50 values were determined using concentration–response curves generated in GraphPad 8 software. Additionally, the resistance index was calculated by comparing IC50 values obtained for the sensitive 3D7 strain with those of the resistant strains.

P. falciparum 7G8 strain = test: SYBR Green growth assay, asexual blood stages, 7G8 strain; type: cell-based, Plasmodium falciparum; conditions: Plasmodium falciparum
Protocol: as §5, §2, §6

[5] = tested on: P. falciparum DHODH strain; test: SYBR Green growth assay, asexual blood stages, DHODH resistant mutant; type: cell-based, Plasmodium falciparum; conditions: Plasmodium falciparum, 72 h
Protocol: as §5, §2, §6

[6] = tested on: P. falciparum hepatic stages; conditions: cited from earlier work
[7] = tested on: P. berghei exflagellation centers; test: Ex vivo exflagellation assay, blood of P. berghei infected mice; type: cell-based, Plasmodium berghei; conditions: 5 μM, 15 min incubation
Protocol: For the ex vivo assays, a female CD1 mouse between 4 and 5 weeks of age (n = 3) was infected with P. berghei. After 4 days, when the presence of parasites (sexual phases) in the blood was observed by Giemsa-stained blood smear microscopy, the total blood from the mouse was collected into a preheated tube at 37 °C containing RPMI medium supplemented with 20% Fetal Bovine Serum (FBS) and 200 units/mL of heparin as an anticoagulant. The tube was maintained at 37 °C and centrifuged at 1500 rpm for 5 min. The supernatant was discarded, and the blood was resuspended in 20 mL of RPMI medium supplemented with 20% FBS.
One milliliter of resuspended blood was added to each well of a 6-well plate containing 5 μM methylene blue (positive control), test compound 1 at 10 μM and 1 μM, and DMSO (negative control). After 15 min, the wells were homogenized, and 10 μL of the content was collected into an Eppendorf tube and incubated at room temperature for another 15 min. The sample was then transferred to a Neubauer chamber, and exflagellation centers were counted using an optical microscope at 40× magnification.

[8] = tested on: P. berghei sexual phases in An. stephensi; test: In vivo transmission-blocking assay, P. berghei infected CD1 mice, An. stephensi; set-up: species or system Plasmodium berghei; conditions: positive control, 25 mg/kg x 2/12h
Protocol: For this assay, a colony of An. stephensi was used. The lab-reared An. stephensi was kept under controlled conditions, with a temperature of 26 °C ± 1 °C, a 12/12 h light/dark cycle, a relative humidity of 70% ± 10%, and fed a 30% sugar solution as needed.
Female CD1 mice (4 to 6 weeks old) were infected by intraperitoneal inoculation (i.p.) containing 10 million erythrocytes infected with P. berghei expressing the GFP fluorescent protein. After 4 days, when parasites in the sexual stages were detected via Giemsa-stained blood smears, mice with similar gametocytemia and parasitemia were randomly divided into three groups of two animals each. The groups of two mices were treated orally with compound 1 at two doses of 50 mg/kg, spaced 12 h apart. […] Following the second dose, mice were anesthetized and placed in individual cages containing approximately 50 female A. stephensi mosquitoes, which had been starved for 24 h before the assay. Blood feeding lasted for 30 min, after which unfed mosquitoes were removed. Engorged females were maintained in an insectary at 21 ± 1 °C and 60% relative humidity, receiving a 30% glucose solution.
A group of 10 mosquitoes was set aside to assess sporozoite development in salivary glands, following a protocol similar to the one described previously, with dissections performed 21 days postblood meal. Additionally, 10 μL of mouse blood was collected immediately after treatment with the compounds and incubated at room temperature for 15 min. Exflagellation was observed under optical microscopy to evaluate the effect of 4-quinolone-derived molecules on microgametocyte activity.

Huh-7 cells = test: Alamar Blue cell confluency (cytotoxicity) in Huh-7 cells; type: cell-based
Protocol: as §4, with “For” for “Huh-7 cells were cultured in RPMI 1640 medium (Sigma) supplemented with 10% v/v fetal bovine serum (FBS), 1% v/v penicillin/streptomycin, 1% v/v glutamine, 1% v/v nonessential amino acids, and 10 mM HEPES, pH 7. For”, “DMSO and atovaquone were used as negative and positive controls, respectively.” left out
On the first day of the assay, the compounds were diluted at 10 and 1 μM in cRPMI medium supplemented with fungizone. and gentamicin. The culture medium of Huh-7 cells was removed and replaced with compound dilutions in triplicate. As a control, a DMSO dilution mimicking the highest compound concentration used was included. The cells were incubated for 1 h at 37 °C in a 5% CO2 atmosphere.
On the second day of the assay, compound toxicity was assessed by measuring cell confluency using the Alamar Blue/CellTiter Blue reagent. First, reagent aliquots stored at −20 °C were thawed and diluted at a 1:20 ratio in cRPMI. The culture medium was removed and replaced with 80 μL of the solution per well, followed by incubation at 37 °C and 5% CO2 for 1 h and 30 min. Fluorescence was measured using a plate reader with the Tecan i-Control software.

[9] = tested on: P. falciparum ATQ_R1 strain; test: SYBR Green growth assay, asexual blood stages, ATQ_R1 strain; type: cell-based, Plasmodium falciparum; conditions: Plasmodium falciparum, 72 h
Protocol: as §5, §2, §6

[10] = tested on: P. falciparum oocyst development; set-up: method as in PMID 12878530, PMID 17361016; conditions: studies primarily focused on P. falciparum; ref 27;28; cited from earlier work
[11] = Plasmodium falciparum, 3D7, 72 h
[12] = Plasmodium falciparum, 3D7, 72 h, asexual blood stages, 3D7 sensitive strain, 72 h, read-out: IC50

2-(4-Chlorophenyl)-6-morpholinoquinolin-4(1H)-one [compound 3]
IC50 ([1]; asexual blood stages, 3D7 sensitive strain, 72 h, read-out: IC50): 2900 nM
Pf gametocytes inhibition [2]: no activity
IC50 ([3]; Huh-7 cells, 48 h after sporozoite addition): 0.64 ± 0.04 µM

CCN(CC)CCCC(C)Nc1ccnc2cc(Cl)ccc12 (centres unmarked) [Chloroquine, reference compound]
IC50 [1, 11]: 6 ± 1 nM
IC50 (P. falciparum HB3 strain; HB3, 72 h): 6 ± 2 nM
IC50 [4]: 170 ± 90 nM
IC50 (P. falciparum 7G8 strain; 7G8, 72 h): 220 ± 80 nM

Cc1cc(Nc2ccc(S(F)(F)(F)(F)F)cc2)n2nc(C(C)(F)F)nc2n1 [DSM 265, reference compound]
IC50 [5]: > 10000 nM

Cc1c(F)c(N2CCNC(C)C2)cc2c1c(=O)c(C(=O)O)cn2C1CC1 (centres unmarked) [Grepafloxacin]
IC50 P. falciparum hepatic stages [6]: 5.0 ± 0.2 µg/mL (≈ 13.9 µM)

CN(C)c1ccc2nc3ccc(=[N+](C)C)cc-3sc2c1 [MB, Methylene blue, reference compound]
inhibition at 5 µM ([2]; Plasmodium falciparum, NF54, 48 h, control at 5 μM, 48 h, read-out: Pf gametocytes Inhibition (%)): 100%
inhibition of exflagellation centers (ex vivo) [7]: completely inhibited
inhibition at 5 µM ([7]; Plasmodium berghei, 0.25 h): 100%

COc1cc(NC(C)CCCN)c2ncccc2c1 (centres unmarked) [Primaquine, reference compound]
inhibition of P. berghei oocysts (in vivo) [8]: 100%
Confluency % (Huh-7 cells; 1 μM): 109 ± 10%
Confluency % (Huh-7 cells; 10 μM): 104.0 ± 0.2%

CCc1nc(N)nc(N)c1-c1ccc(Cl)cc1 [Pyrimethamine, reference compound]
IC50 [1, 12]: 50 ± 8 nM
IC50 (P. falciparum HB3 strain; HB3 strain, 72 h, read-out: IC50): 5200 ± 400 nM
IC50 [4]: 6000 ± 2400 nM
IC50 (P. falciparum 7G8 strain; 7G8 strain, 72 h, read-out: IC50): 6000 ± 1000 nM
IC50 [9]: > 10000 nM

Cc1ccc(-c2cc(O)c3ccccc3n2)cc1 [compound 2, 2-p-Tolylquinolin-4(1H)-one]
IC50 [1, 12]: 11000 nM
IC50 ([3]; Plasmodium berghei, Huh-7 cells, 48 h after sporozoite addition): 1.3 ± 0.2 µM
Confluency % (Huh-7 cells; 1 μM): 163 ± 14%
Confluency % (Huh-7 cells; 10 μM): 104 ± 4%

O=c1cc(-c2ccc(N3CCOCC3)cc2)[nH]c2ccccc12 [compound 4, 2-(4-Morfolinofenil)-quinolin-4(1H)-one]
IC50 [1, 12]: > 10000 nM
Pf gametocytes inhibition [2]: no activity

CCCCCCCc1cc(O)c2ccccc2n1 [compound 5, 2-Heptylquinolin-4(1H)-one]
IC50 [1, 11]: 1000 ± 200 nM
Pf gametocytes inhibition [2]: no activity
inhibition at 20 µM ([2]; Plasmodium falciparum, NF54, 48 h, read-out: Pf gametocytes Inhibition (%)): 25 ± 4%
IC50 ([3]; Plasmodium berghei, Huh-7, 48 h): 0.3 ± 0.01 µM
Confluency % (Huh-7 cells; 1 μM): 100 ± 1%
Confluency % (Huh-7 cells; 10 μM): 147 ± 3%

CCCCN(CCCC)CCC(O)c1cc2c(Cl)cc(Cl)cc2c2cc(C(F)(F)F)ccc12 (centres unmarked) [halofantrine]
concentration required to inhibit oocyst development [10]: around 10 μM

CCCCN(CCCC)CC(O)c1cc(Cl)cc2c1-c1ccc(Cl)cc1/C2=C/c1ccc(Cl)cc1 (centres unmarked) [lumefantrine]
concentration required to inhibit oocyst development [10]: around 10 μM

OC(c1cc(C(F)(F)F)nc2c(C(F)(F)F)cccc12)C1CCCCN1 (centres unmarked) [mefloquine]
concentration required to inhibit oocyst development [10]: around 10 μM
